How the values were obtained:
FGFR2 = target: T1, FGFR2 (Homo sapiens, UniProt P21802); test: Kinase inhibition assay (ELISA); format: biochemical; details: mean ± SD
T1 construct: purchased Eurofins (Fremont, United States)

CDK2/cyclinE(h) = target: T2, CDK2/cyclinE(h) (Homo sapiens, UniProt P24941); test: Eurofins kinase panel; format: biochemical; details: read-out: Inhibition rate (%)
T2 construct: purchased Eurofins (KinaseProfiler)

cKit(V654A)(h) = target: T3, cKit(V654A)(h) (Homo sapiens, UniProt P10721, V654A); test: Eurofins kinase panel; format: biochemical; details: read-out: Inhibition rate (%)
T3 construct: purchased Eurofins (KinaseProfiler)
T3 sequence (P10721 26-976 V654A): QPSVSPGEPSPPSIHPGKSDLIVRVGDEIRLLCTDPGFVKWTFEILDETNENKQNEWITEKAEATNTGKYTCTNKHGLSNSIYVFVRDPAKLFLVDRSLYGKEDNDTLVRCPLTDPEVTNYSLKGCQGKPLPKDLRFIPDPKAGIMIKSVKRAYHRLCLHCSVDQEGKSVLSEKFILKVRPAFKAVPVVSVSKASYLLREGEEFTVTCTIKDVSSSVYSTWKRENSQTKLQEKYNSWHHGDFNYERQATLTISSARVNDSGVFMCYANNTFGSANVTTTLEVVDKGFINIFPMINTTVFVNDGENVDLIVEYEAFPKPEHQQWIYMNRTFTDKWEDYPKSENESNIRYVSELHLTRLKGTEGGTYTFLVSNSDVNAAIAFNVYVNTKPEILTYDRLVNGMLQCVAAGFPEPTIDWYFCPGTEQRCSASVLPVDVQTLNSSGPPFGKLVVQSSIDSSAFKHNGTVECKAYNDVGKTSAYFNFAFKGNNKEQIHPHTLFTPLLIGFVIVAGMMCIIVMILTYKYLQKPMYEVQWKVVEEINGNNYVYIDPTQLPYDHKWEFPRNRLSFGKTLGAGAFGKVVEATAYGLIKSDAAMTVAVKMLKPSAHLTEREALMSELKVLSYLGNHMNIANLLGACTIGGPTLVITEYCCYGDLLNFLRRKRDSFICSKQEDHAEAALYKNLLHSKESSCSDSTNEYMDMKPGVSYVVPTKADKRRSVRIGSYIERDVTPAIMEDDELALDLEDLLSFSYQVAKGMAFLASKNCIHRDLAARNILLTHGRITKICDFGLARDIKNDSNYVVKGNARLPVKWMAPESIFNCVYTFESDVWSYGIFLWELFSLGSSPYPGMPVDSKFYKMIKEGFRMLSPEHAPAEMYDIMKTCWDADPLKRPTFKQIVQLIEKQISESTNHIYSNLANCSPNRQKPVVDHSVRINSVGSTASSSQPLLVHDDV

GRK2(h) = target: T4, GRK2(h) (Homo sapiens, UniProt P25098); test: Eurofins kinase panel; format: biochemical; details: read-out: Inhibition rate (%)
T4 construct: purchased Eurofins (KinaseProfiler)
T4 sequence (P25098 1-689): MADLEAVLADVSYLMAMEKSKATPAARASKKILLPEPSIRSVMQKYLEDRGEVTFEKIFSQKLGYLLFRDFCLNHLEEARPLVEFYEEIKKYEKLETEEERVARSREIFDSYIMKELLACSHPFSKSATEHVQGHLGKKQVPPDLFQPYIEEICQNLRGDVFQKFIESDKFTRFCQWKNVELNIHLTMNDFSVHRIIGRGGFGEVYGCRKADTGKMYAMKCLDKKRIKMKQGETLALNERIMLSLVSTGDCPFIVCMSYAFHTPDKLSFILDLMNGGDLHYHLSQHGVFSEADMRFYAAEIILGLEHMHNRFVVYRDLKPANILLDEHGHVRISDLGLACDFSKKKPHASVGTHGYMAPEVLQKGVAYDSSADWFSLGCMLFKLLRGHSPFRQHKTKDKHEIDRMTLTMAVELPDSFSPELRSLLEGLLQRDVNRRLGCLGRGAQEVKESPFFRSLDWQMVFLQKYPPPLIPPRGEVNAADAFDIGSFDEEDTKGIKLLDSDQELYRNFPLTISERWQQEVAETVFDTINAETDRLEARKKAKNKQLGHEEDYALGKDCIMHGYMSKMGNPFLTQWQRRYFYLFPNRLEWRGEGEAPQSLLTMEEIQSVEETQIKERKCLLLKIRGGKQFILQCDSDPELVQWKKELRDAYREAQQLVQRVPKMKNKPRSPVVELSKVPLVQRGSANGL

MST3(h) = target: T5, MST3(h) (Homo sapiens, UniProt Q9Y6E0); test: Eurofins kinase panel; format: biochemical; details: read-out: Inhibition rate (%)
T5 construct: purchased Eurofins (KinaseProfiler)
T5 sequence (Q9Y6E0 whole entry): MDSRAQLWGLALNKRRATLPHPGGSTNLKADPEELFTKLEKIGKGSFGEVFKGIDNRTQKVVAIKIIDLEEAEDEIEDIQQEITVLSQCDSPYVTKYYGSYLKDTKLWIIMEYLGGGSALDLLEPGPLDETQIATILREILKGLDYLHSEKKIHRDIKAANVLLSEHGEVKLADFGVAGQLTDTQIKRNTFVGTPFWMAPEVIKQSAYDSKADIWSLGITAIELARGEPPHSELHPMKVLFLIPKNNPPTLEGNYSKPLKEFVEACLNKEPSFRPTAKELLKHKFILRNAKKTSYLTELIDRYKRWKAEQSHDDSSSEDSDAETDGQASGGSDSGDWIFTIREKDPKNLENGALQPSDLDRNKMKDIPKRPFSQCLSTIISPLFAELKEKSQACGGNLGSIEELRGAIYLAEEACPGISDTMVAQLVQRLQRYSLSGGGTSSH

FGFR4 = target: T6, FGFR4 (Homo sapiens, UniProt P22455); test: Kinase inhibition assay (ELISA); format: biochemical; details: mean ± SD
T6 construct: purchased Eurofins (Fremont, United States)
T6 sequence (P22455 22-802): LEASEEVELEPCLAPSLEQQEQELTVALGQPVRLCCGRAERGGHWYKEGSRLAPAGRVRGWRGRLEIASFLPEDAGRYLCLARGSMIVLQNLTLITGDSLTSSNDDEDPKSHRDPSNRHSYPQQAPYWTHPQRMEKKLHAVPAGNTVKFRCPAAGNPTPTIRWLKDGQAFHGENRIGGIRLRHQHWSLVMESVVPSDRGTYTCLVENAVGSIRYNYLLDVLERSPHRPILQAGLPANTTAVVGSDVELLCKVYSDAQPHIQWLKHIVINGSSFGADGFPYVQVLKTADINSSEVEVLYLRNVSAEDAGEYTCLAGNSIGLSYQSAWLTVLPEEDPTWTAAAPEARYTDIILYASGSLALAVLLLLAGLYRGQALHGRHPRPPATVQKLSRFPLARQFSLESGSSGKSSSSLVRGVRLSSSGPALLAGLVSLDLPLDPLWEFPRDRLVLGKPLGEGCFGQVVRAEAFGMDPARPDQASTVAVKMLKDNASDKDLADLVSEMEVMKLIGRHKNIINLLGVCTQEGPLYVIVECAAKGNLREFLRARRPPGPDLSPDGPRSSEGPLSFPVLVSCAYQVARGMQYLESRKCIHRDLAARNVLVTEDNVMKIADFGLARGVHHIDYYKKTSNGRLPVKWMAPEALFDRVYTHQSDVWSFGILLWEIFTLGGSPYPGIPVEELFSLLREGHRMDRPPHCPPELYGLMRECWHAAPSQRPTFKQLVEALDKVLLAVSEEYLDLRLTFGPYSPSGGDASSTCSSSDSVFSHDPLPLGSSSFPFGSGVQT

CSF-1R = CSF-1R (Homo sapiens, UniProt P07333); test: Z'-LYTE kinase assay; format: biochemical; details: mean ± SD
CSF-1R, sequence (P07333 20-972): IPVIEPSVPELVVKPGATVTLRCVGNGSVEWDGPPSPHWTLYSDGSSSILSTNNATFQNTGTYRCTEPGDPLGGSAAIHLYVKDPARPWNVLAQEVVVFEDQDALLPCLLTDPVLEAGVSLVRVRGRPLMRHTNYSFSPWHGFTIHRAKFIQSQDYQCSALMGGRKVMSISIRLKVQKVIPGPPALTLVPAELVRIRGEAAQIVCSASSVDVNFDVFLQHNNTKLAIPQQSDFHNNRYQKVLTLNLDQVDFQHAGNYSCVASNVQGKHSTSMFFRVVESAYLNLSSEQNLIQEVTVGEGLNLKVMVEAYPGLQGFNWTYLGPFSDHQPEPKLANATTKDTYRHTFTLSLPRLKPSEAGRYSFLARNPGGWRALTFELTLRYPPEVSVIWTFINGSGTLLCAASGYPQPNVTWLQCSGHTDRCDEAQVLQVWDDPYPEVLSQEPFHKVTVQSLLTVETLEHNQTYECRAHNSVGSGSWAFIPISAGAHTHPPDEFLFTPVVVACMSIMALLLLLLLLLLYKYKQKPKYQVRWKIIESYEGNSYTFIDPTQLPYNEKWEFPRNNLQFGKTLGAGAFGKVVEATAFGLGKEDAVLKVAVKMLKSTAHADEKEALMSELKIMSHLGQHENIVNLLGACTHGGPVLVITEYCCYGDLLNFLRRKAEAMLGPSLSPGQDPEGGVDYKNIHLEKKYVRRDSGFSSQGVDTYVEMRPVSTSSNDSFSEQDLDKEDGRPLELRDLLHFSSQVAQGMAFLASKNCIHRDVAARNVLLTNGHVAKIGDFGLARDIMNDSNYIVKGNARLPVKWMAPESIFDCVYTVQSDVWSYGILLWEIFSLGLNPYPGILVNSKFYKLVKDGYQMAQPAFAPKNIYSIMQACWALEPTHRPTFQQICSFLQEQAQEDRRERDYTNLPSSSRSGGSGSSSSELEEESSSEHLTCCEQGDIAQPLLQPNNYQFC

[1] = test system: bFGF-induced primary HUVECs; test: bFGF-induced HUVEC proliferation (CCK-8); format: cell-based, human
PBMC (CSF-1) = test: Macrophage survival (CCK-8); format: cell-based; details: Homo sapiens, 168 h, 7 days, mean ± SD
Method: Murine bone marrow and human monocytes were stimulated with CSF-1 for 7 days together with the indicated inhibitor, and cell viability was evaluated by the CCK-8 assay. The IC50 values are shown as the mean ± SD (nM) from two independent tests. B-E, To test the impact of 3D185 on the polarization of CSF-1-induced macrophages, murine bone marrow cells and human monocytes were induced to mature into macrophages with CSF-1 for 7 days and then stimulated with CSF-1, IL-4 and IL-13 for an additional 48 h. The expression of the markers MHC-II (b), CD86 (c), and CD206 (d) on induced murine macrophages and CD206 expression on induced human macrophages (e) were determined by flow cytometry, and the mean fluorescence intensity (MFI) was analyzed with FlowJo. Representative data from two independent experiments. f Murine bone marrow cells (left panel) and human monocytes (right panel) were induced to mature into macrophages with CSF-1 for 7 days and then stimulated with CSF-1, IL-4 and IL-13 and treated with vehicle or the indicated inhibitor for an additional 48 h. Then, all cells were collected to count viable cells by staining with trypan blue
Murine bone marrow-derived macrophages (BMDMs) and PBMCs were used for cell viability studies. […] Cell viability was measured using the CCK-8 assay. For IL-4/IL-13-induced macrophage survival analysis, viable cells were counted by trypan blue exclusion.

T1 sequence (P21802 22-821): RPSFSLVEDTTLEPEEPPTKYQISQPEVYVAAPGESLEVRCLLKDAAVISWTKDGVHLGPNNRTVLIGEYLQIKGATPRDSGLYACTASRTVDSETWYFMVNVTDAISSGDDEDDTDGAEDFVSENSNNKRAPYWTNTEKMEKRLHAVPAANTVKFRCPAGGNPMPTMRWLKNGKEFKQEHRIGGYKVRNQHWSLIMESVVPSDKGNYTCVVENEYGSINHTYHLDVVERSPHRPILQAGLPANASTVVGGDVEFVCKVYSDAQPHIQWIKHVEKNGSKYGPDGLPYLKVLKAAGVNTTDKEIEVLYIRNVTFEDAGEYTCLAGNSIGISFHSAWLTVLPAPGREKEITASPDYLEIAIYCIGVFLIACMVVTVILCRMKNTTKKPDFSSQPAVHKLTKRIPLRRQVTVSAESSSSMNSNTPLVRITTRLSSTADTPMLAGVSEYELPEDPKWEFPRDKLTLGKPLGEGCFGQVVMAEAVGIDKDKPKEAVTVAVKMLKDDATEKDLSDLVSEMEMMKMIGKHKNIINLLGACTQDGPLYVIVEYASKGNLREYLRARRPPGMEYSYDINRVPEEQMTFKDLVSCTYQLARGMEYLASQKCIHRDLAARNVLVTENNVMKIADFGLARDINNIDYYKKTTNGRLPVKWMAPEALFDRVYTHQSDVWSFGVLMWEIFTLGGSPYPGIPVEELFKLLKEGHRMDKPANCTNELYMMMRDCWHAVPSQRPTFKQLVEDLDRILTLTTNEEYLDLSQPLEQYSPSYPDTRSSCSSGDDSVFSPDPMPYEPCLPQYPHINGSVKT

Work on `COc1cc(OC)c(Cl)c(-c2ccc3c(NC(=O)c4ccc(N5CCNC(C)(C)C5)cc4)n[nH]c3n2)c1Cl` [3D185] yielded an IC50 (FGFR2) of 1.3 nM, an inhibition at 0.01 µM (CDK2/cyclinE(h); 10 nM) of -5% and an inhibition at 0.1 µM (CDK2/cyclinE(h); 100 nM) of 2%. It also gave an inhibition at 1 µM (CDK2/cyclinE(h); 1000 nM) of 10%, an inhibition at 0.01 µM (cKit(V654A)(h); 10 nM) of 4% and an inhibition at 0.1 µM (cKit(V654A)(h); 100 nM) of 14%. It also gave an inhibition at 1 µM (cKit(V654A)(h); 1000 nM) of 37%, an inhibition at 0.01 µM (GRK2(h); 10 nM) of 5% and an inhibition at 0.1 µM (GRK2(h); 100 nM) of 1%. For the same compound, the inhibition at 1 µM (GRK2(h); 1000 nM) was -4%, the inhibition at 0.01 µM (MST3(h); 10 nM) was -2% and the inhibition at 0.1 µM (MST3(h); 100 nM) was 8%. It also gave an inhibition at 1 µM (MST3(h); 1000 nM) of 70%, an IC50 (FGFR4) of 51.4 nM and an IC50 (CSF-1R) of 3.8 nM. The IC50 ([1]; Homo sapiens, HUVEC, bFGF 100 ng/mL, 48 h) was 0.5 nM, the “fold more potent on bFGF-induced than VEGF-induced HUVEC proliferation” value ([1]; cellular assays) was “greater than 176 fold” and the IC50 (PBMC (CSF-1)) was 118 nM.

Reference: publication PMC6704710, “Preclinical evaluation of 3D185, a novel potent inhibitor of FGFR1/2/3 and CSF-1R, in FGFR-dependent and macrophage-dominant cancer models” (Journal of Experimental & Clinical Cancer Research : CR, 2019)
